Test results: US20240091248A1, “METHODS OF TREATING ACUTE MYELOID LEUKEMIA AND MANAGING CYTOPENIA” (GENENTECH, INC., priority 2021, published 2024)
pKi: −log10 of the molar value.

Key:
[1] = test system: patients with acute myeloid leukemia (AML); assay: measurable residual disease (MRD) response analysis of the phase 3 study; format: in vivo, human; conditions: p<0.001
Procedure: Methods: Enrolled patients were ≥18 years and unfit for intensive chemotherapy. Patients received Ven 400 mg orally; days 1-28 and Aza 75 mg/m^2; days 1-7/28-day cycle. Bone marrow aspirate samples for multiparametric flow cytometry assessments by integrated leukemia-associated immunophenotypes and different than normal procedures were collected for central analysis (Covance Central Laboratory Services) at baseline, end of cycle 1, and every 3 cycles thereafter. Assessments were performed independent of disease responses. MRD response was defined as <1 residual blast/1000 leukocytes (<10^−3). CRc, DoR, OS, and EFS were assessed. Disease assessments were per modified International Working Group response criteria for AML.

[2] = test system: patients with acute myeloid leukemia (AML); assay: venetoclax exposure versus overall survival in CR/CRh patients with post-remission cytopenia; format: in vivo, human; conditions: switched to 21-day dosing or remained on 28-day dosing, Cox proportional-hazards models
[3] = target: Mcl-1 (Homo sapiens, UniProt Q07820); conditions: cited from earlier work
Sequence of Mcl-1 (Q07820 whole entry): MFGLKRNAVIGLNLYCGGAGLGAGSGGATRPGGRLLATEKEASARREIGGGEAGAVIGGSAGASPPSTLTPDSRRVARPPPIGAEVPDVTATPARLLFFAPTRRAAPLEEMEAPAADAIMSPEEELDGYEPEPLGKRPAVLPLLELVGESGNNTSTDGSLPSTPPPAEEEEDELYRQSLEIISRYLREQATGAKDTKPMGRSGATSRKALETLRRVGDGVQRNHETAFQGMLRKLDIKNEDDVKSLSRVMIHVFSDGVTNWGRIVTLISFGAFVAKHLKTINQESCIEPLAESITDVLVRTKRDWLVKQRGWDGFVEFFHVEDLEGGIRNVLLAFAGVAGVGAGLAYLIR

SMILES | rate of composite complete remission (CRc) and MRD response (MRD<10^−3) [1] | relationship between venetoclax exposure (Cavg) and overall survival [2] | pKi [3]
Nc1ncn([C@@H]2O[C@H](CO)[C@@H](O)[C@H]2O)c(=O)n1 [Aza, 4-amino-1-β-D-ribofuranosyl-s-triazin-2(1H)-one] | 7.6% |  | 
CC1(C)CCC(CN2CCN(c3ccc(C(=O)NS(=O)(=O)c4ccc(NCC5CCOCC5)c([N+](=O)[O-])c4)c(Oc4cnc5[nH]ccc5c4)c3)CC2)=C(c2ccc(Cl)cc2)C1 [venetoclax, 4-(4-{[2-(4-chlorophenyl)-4,4-dimethylcyclohex-1-en-1-yl]methyl}piperazin-1-yl)-N-({3-nitro-4-[(tetrahydro-2H-pyran-4-ylmethyl)amino]phenyl}sulfonyl)-2-(1H-pyrrolo[2,3-b]pyridin5-yloxy)benzamide] |  | no apparent relationship | < 6.35
